Laboratory results: US20230089867A1, “CYCLIC PENTAMER COMPOUNDS AS PROPROTEIN CONVERTASE SUBTILISIN/KEXIN TYPE 9 (PCSK9) INHIBITORS FOR THE TREATMENT OF METABOLIC DISORDER” (Novartis AG, priority 2018, published 2023)

Molecular target: human PCSK9 (Homo sapiens, UniProt Q8NBP7)
Assay: PCSK9 ligand binding TR-FRET assay (interference with binding of human PCSK9 to human LDLR)
Details: for Max % inhibition: PCSK9 FRET assay, efficacy (Amax), 100% = 1 uM unlabeled human PCSK9, 0% = DMSO; for IC50: TR-FRET, human PCSK9 Alexa Fluor 647 / human LDLR extracellular domain-Europium Kryptate, read-out: PCSK9 FRET Assay IC50
How it was run: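 Threefold compound dilutions were pre-incubated 30 min with PCSK9, after which 4 nM Europium Kryptate-tagged human LDLR ectodomain was added for a further 2 h.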

human PCSK9, sequence (Q8NBP7 153-692): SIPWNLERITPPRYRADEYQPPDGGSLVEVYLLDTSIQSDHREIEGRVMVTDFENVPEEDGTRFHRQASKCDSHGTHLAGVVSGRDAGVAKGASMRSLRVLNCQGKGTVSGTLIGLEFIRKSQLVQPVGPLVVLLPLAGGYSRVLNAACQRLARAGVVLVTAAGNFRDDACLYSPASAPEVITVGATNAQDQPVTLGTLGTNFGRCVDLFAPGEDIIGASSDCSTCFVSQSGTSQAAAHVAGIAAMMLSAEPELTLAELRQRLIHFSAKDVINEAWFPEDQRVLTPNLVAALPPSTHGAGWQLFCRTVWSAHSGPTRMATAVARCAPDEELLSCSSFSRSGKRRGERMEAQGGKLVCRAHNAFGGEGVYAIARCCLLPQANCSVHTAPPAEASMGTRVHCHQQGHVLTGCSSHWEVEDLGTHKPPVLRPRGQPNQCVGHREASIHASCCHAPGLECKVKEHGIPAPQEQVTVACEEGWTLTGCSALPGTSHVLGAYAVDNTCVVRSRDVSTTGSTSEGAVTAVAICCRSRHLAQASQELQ
human PCSK9, sequence (Q8NBP7 31-152 partner limits assumed): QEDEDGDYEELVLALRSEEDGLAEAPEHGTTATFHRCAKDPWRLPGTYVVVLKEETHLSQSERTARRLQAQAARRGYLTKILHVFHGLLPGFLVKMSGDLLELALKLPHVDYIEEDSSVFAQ

Compound	Max % inhibition [%]	IC50 [nM]
COC[C@@H]1NC(=O)[C@H](CCCN(C)C)N(Cc2ccc(Cl)cc2Oc2ccc(-c3cnc(CN4CCCC4)n3C)cc2)C(=O)C[C@@H](Cc2ccccc2)C(=O)N(C)[C@H]2CCCC[C@@H]2NC(=O)C[C@H](Cc2ccc(Cl)cc2)N(C)C1=O [Compound 285, (4S,7S,10S,14R,16aS,20aS)-14-benzyl-11-(4-chloro-2-(4-(1-methyl-2-(pyrrolidin-1-ylmethyl)-1H-imidazol-5-yl)phenoxy)benzyl)-4-(4-chlorobenzyl)-10-(3-(dimethylamino)propyl)-7-(methoxymethyl)-5,16-dimethylhexadecahydrobenzo[l][1,4,7,11,14]pentaazacyclooctadecine-2,6,9,12,15(3H)-pentaone]	90.24	2.1
CC=CC[C@@H]1CC(=O)N(Cc2ccc(Cl)cc2Oc2ccc(-c3cnc(CN(C)C)n3C)cc2)[C@@H](C)C(=O)N[C@@H](COC)C(=O)N(C)[C@@H](Cc2ccc(Cl)cc2)CC(=O)N[C@H]2CCCC[C@@H]2N(C)C1=O [Compound 286, (4S,7S,10S,14R,16aS,20aS)-14-(but-2-en-1-yl)-11-(4-chloro-2-(4-(2-((dimethylamino)methyl)-1-methyl-1H-imidazol-5-yl)phenoxy)benzyl)-4-(4-chlorobenzyl)-7-(methoxymethyl)-5,10,16-trimethylhexadecahydrobenzo[l][1,4,7,11,14]pentaazacyclooctadecine-2,6,9,12,15(3H)-pentaone]	59.34	0.7
CN(C)Cc1ncc(-c2ccc(Oc3cc(Cl)ccc3CN3C(=O)C[C@@H](Cc4ccccc4)C(=O)N(C)[C@H]4CCCC[C@@H]4NC(=O)C[C@H](Cc4ccc(Cl)cc4)N(C)C(=O)[C@H](CO)NC(=O)[C@H]3CCC(=O)OC(C)(C)C)cc2)n1C [Compound 287, tert-butyl 3-((4S,7S,10R,14R,16aS,20aS)-14-benzyl-11-(4-chloro-2-(4-(2-((dimethylamino)methyl)-1-methyl-1H-imidazol-5-yl)phenoxy)benzyl)-4-(4-chlorobenzyl)-7-(hydroxymethyl)-5,16-dimethyl-2,6,9,12,15-pentaoxodocosahydrobenzo[l][1,4,7,11,14]pentaazacyclooctadecin-10-yl)propanoate]	89.28	2.6
COC[C@@H]1NC(=O)[C@H](C)N(Cc2ccc(Cl)cc2Oc2ccc(-c3cnc(CN(C)C)n3C)cc2)C(=O)C[C@@H](CC2CC2)C(=O)N(C)[C@H]2CCCC[C@@H]2NC(=O)C[C@H](Cc2ccc(Cl)cc2)N(C)C1=O [Compound 290, (4S,7S,10S,14R,16aS,20aS)-11-(4-chloro-2-(4-(2-((dimethylamino)methyl)-1-methyl-1H-imidazol-5-yl)phenoxy)benzyl)-4-(4-chlorobenzyl)-14-(cyclopropylmethyl)-7-(methoxymethyl)-5,10,16-trimethylhexadecahydrobenzo[l][1,4,7,11,14]pentaazacyclooctadecine-2,6,9,12,15(3H)-pentaone]	79.21	3.6
COC[C@@H]1NC(=O)[C@H](C)N(Cc2ccc(Cl)cc2Oc2ccc(-c3cnc(CN(C)C)n3C)cc2)C(=O)C[C@@H](Cc2ccccn2)C(=O)N(C)[C@@H](C)[C@H](C)NC(=O)C[C@H](Cc2ccc(Cl)cc2)N(C)C1=O [Compound 295, (2S,5S,8S,12S,13S,16R)-1-(4-chloro-2-(4-(2-((dimethylamino)methyl)-1-methyl-1H-imidazol-5-yl)phenoxy)benzyl)-8-(4-chlorobenzyl)-5-(methoxymethyl)-2,7,12,13,14-pentamethyl-16-(pyridin-2-ylmethyl)-1,4,7,11,14-pentaazacyclooctadecane-3,6,10,15,18-pentaone]	101.64	1.8
COC[C@@H]1NC(=O)[C@H](CCCN2CCCC2=O)N(Cc2ccc(Cl)cc2Oc2ccc(-c3cnc(CN(C)C)n3C)cc2)C(=O)C[C@@H](Cc2ccccc2)C(=O)N(C)[C@H]2CCCC[C@@H]2NC(=O)C[C@H](Cc2ccc(Cl)cc2)N(C)C1=O [Compound 296, (4S,7S,10S,14R,16aS,20aS)-14-benzyl-11-(4-chloro-2-(4-(2-((dimethylamino)-methyl)-1-methyl-1H-imidazol-5-yl)phenoxy)benzyl)-4-(4-chlorobenzyl)-7-(methoxymethyl)-5,16-dimethyl-10-(3-(2-oxopyrrolidin-1-yl)propyl)hexadecahydrobenzo[l][1,4,7,11,14]penta-azacyclooctadecine-2,6,9,12,15(3H)-pentaone]	98.03	1.2
COC[C@@H]1NC(=O)[C@H](C)N(Cc2ccc(Cl)cc2Oc2c(F)cc(-c3cnc(CN4CCCC4)n3C)cc2F)C(=O)C[C@@H](Cc2ccccc2)C(=O)N(C)[C@@H](C)CNC(=O)C[C@H](Cc2ccc(Cl)cc2)N(C)C1=O [Compound 298, (2S,5S,8S,13S,16R)-16-benzyl-1-(4-chloro-2-(2,6-difluoro-4-(1-methyl-2-(pyrrolidin-1-ylmethyl)-1H-imidazol-5-yl)phenoxy)benzyl)-8-(4-chlorobenzyl)-5-(methoxymethyl)-2,7,13,14-tetramethyl-1,4,7,11,14-pentaazacyclooctadecane-3,6,10,15,18-pentaone]	99.00	2.01

Further compounds by falling IC50, results first:

Max % inhibition [%]	IC50 [nM]	Compound
55.44	105	COC[C@@H]1NC(=O)[C@@H](C)N(Cc2ccc(Cl)cc2Oc2ccc(-c3cnc(CN(C)C)n3C)cc2)C(=O)C[C@@H](Cc2ccccc2)C(=O)N(C)[C@H]2CCOC[C@@H]2NC(=O)C[C@H](Cc2ccc(Cl)cc2)N(C)C1=O [Compound 294, (4S,7S,10R,14R,16aS,20aR)-14-benzyl-11-(4-chloro-2-(4-(2-((dimethylamino)methyl)-1-methyl-1H-imidazol-5-yl)phenoxy)benzyl)-4-(4-chlorobenzyl)-7-(methoxymethyl)-5,10,16-trimethyltetradecahydro-1H-pyrano[3,4-l][1,4,7,11,14]pentaazacyclooctadecine-2,6,9,12,15(3H)-pentaone]
87.05	24.1	COC[C@@H]1NC(=O)[C@@H](CCN(C)C)N(Cc2ccc(Cl)cc2Oc2ccc(-c3cnc(CN(C)C)n3C)cc2)C(=O)C[C@@H](Cc2ccccc2)C(=O)N(C)[C@H]2CCCC[C@@H]2NC(=O)C[C@H](Cc2ccc(Cl)cc2)N(C)C1=O [Compound 288, (4S,7S,10R,14R,16aS,20aS)-14-benzyl-11-(4-chloro-2-(4-(2-((dimethylamino)methyl)-1-methyl-1H-imidazol-5-yl)phenoxy)benzyl)-4-(4-chlorobenzyl)-10-(2-(dimethylamino)ethyl)-7-(methoxymethyl)-5,16-dimethylhexadecahydrobenzo[l][1,4,7,11,14]pentaazacyclooctadecine-2,6,9,12,15(3H)-pentaone]
113.30	3	COC[C@@H]1NC(=O)[C@H](C)N(Cc2ccc(Cl)cc2Oc2ccc(-n3cnc(CN(C)C)c3C)cc2)C(=O)C[C@@H](Cc2ccccc2)C(=O)N(C)[C@H]2CCCC[C@@H]2NC(=O)C[C@H](Cc2ccc(Cl)cc2)N(C)C1=O [Compound 292, (4S,7S,10S,14R,16aS,20aS)-14-benzyl-11-(4-chloro-2-(4-(4-((dimethylamino)methyl)-5-methyl-1H-imidazol-1-yl)phenoxy)benzyl)-4-(4-chlorobenzyl)-7-(methoxymethyl)-5,10,16-trimethylhexadecahydrobenzo[l][1,4,7,11,14]pentaazacyclooctadecine-2,6,9,12,15(3H)-pentaone]
102.86	1.6	COC[C@@H]1NC(=O)[C@H](CCCN(C)C)N(Cc2ccc(Cl)cc2Oc2ccc(-c3cnc(CN(C)C)n3C)cc2)C(=O)C[C@@H](Cc2ccccc2)C(=O)N(C)[C@H]2CCCC[C@@H]2NC(=O)C[C@H](Cc2ccc(Cl)cc2)N(C)C1=O [Compound 291, (4S,7S,10S,14R,16aS,20aS)-14-benzyl-11-(4-chloro-2-(4-(2-((dimethylamino)methyl)-1-methyl-1H-imidazol-5-yl)phenoxy)benzyl)-4-(4-chlorobenzyl)-10-(3-(dimethylamino)propyl)-7-(methoxymethyl)-5,16-dimethylhexadecahydrobenzo[l][1,4,7,11,14]pentaazacyclooctadecine-2,6,9,12,15(3H)-pentaone]
103.68	0.7	COC[C@@H]1NC(=O)[C@H](C)N(Cc2ccc(Cl)cc2Oc2ccc(-c3cnc(CN(C)C)n3C)cc2)C(=O)C[C@@H](Cc2ccc(F)c(F)c2F)C(=O)N(C)[C@@H](C)[C@H](C)NC(=O)C[C@H](Cc2ccc(Cl)cc2)N(C)C1=O [Compound 293, (2S,5S,8S,12S,13S,16R)-1-(4-chloro-2-(4-(2-((dimethylamino)methyl)-1-methyl-1H-imidazol-5-yl)phenoxy)benzyl)-8-(4-chlorobenzyl)-5-(methoxymethyl)-2,7,12,13,14-pentamethyl-16-(2,3,4-trifluorobenzyl)-1,4,7,11,14-pentaazacyclooctadecane-3,6,10,15,18-pentaone]
100.92	0.6	C=CC[C@@H]1CC(=O)N(Cc2ccc(Cl)cc2Oc2ccc(-c3cnc(CN(C)C)n3C)cc2)[C@@H](C)C(=O)N[C@@H](COC)C(=O)N(C)[C@@H](Cc2ccc(Cl)cc2)CC(=O)N[C@@H](C)[C@H](C)N(C)C1=O [Compound 289, (2S,5S,8S,12S,13S,16R)-16-allyl-1-(4-chloro-2-(4-(2-((dimethylamino)methyl)-1-methyl-1H-imidazol-5-yl)phenoxy)benzyl)-8-(4-chlorobenzyl)-5-(methoxymethyl)-2,7,12,13,14-pentamethyl-1,4,7,11,14-pentaazacyclooctadecane-3,6,10,15,18-pentaone]
